Results on two molecules are retold here after ChEMBL document CHEMBL1130508, “Synthesis of 7-membered cyclic hydroxyguanidines: Novel HIV-1 protease inhibitors” (Bioorg Med Chem Lett, 1997).

The target of this assay is Human immunodeficiency virus type 1 protease (Human immunodeficiency virus 1, UniProt Q72874). The assay is described as follows: The compound was evaluated for its inhibition constant against HIV-1 protease (HIV PR).

As usually defined, the Ki is the equilibrium dissociation constant of an inhibitor or competing ligand from its target. Higher therefore signals weaker binding.

As to `O[C@@H]1[C@@H](O)[C@@H](Cc2ccccc2)N(Cc2ccccc2)C(=NOCc2ccccc2)N(Cc2ccccc2)[C@@H]1Cc1ccccc1`, the affinity corresponds to a Ki of 3000 nM.
`ON=C1N(Cc2ccccc2)[C@H](Cc2ccccc2)[C@H](O)[C@@H](O)[C@@H](Cc2ccccc2)N1Cc1ccccc1` yielded a Ki of 42 nM.
